The values that follow come from PubChem BioAssay AID220 (DTP/NCI, 2004).

The experiment deals with CD8F1 mice, subcutaneous mammary adenocarcinoma, T/C%. The experiment can be described thus: NCI In Vivo Anticancer Drug Screen. Data for tumor model Mammary Adenocarcinoma CD8F1 (subcutaneous) in CD8F1. The settings on record: higher = larger tumour. Summed up: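 Tumor-bearing mice, transplantable model; readout survival or tumor size; value = treated (T) / vehicle control (C).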

“And” between values parts separate entries of the source, which are not always exact repeats. Equal entries are not always repeated. Records with an inconclusive call do not appear.

On to `Nc1ncnc2c1ccn2C1OC(CO)C(O)C1O` (configuration not stated), for which the T/C was 162 % of control (endpoint: mean tumor weight, dose: 0.25 mg/kg/injection, schedule: Q01DX009 (ip), vehicle: saline); 98 % of control (endpoint: mean tumor weight, dose: 0.5 mg/kg/injection, schedule: Q01DX009 (ip), vehicle: saline); 114 % of control (endpoint: mean tumor weight, dose: 1.0 mg/kg/injection, schedule: Q01DX009 (ip), vehicle: saline); 117 % of control (endpoint: mean tumor weight, dose: 1.0 mg/kg/injection, schedule: Q07DX005 (ip), vehicle: saline); 361 % of control (endpoint: mean tumor weight, dose: 4.0 mg/kg/injection, schedule: Q07DX005 (ip), vehicle: saline); 195 % of control (endpoint: median tumor weight (est.), dose: 0.5 mg/kg/injection, schedule: Q07DX005 (ip), vehicle: Klucel (hydroxypropylcellulose) (HPC)). Further, the T/C (endpoint: median tumor weight (est.), dose: 8.0 mg/kg/injection, schedule: Q07DX005 (ip), vehicle: Klucel (hydroxypropylcellulose) (HPC)) is 114 % of control.

Take `CC(C)[C@](O)(C(=O)OCC1=CC[N+]2([O-])CC[C@@H](O)[C@@H]12)[C@H](C)O` (some centres not stated): the T/C is 81 % of control (endpoint: median tumor weight (est.), dose: 25.0 mg/kg/injection, schedule: Q07DX005 (ip), vehicle: water); 67 % of control (endpoint: median tumor weight (est.), dose: 50.0 mg/kg/injection, schedule: Q07DX005 (ip), vehicle: water); 42 % of control (endpoint: median tumor weight (est.), dose: 100.0 mg/kg/injection, schedule: Q07DX005 (ip), vehicle: water); 79 % of control (endpoint: median tumor weight (est.), dose: 200.0 mg/kg/injection, schedule: Q07DX005 (ip), vehicle: water); 59 % of control (endpoint: median tumor weight (est.), dose: 400.0 mg/kg/injection, schedule: Q07DX005 (ip), vehicle: water).

For the molecule `Nc1nnc[se]1`, the T/C is 80 % of control (endpoint: median tumor weight change, dose: 15.6 mg/kg/injection, schedule: Q01DX001 (ip), vehicle: saline with Tween-80); 123 % of control (endpoint: median tumor weight change, dose: 31.25 mg/kg/injection, schedule: Q01DX001 (ip), vehicle: saline with Tween-80); 84 % of control (endpoint: median tumor weight change, dose: 62.5 mg/kg/injection, schedule: Q01DX001 (ip), vehicle: saline with Tween-80); 94 % of control (endpoint: median tumor weight change, dose: 125.0 mg/kg/injection, schedule: Q01DX001 (ip), vehicle: saline with Tween-80); 50 % of control (endpoint: median tumor weight change, dose: 250.0 mg/kg/injection, schedule: Q01DX001 (ip), vehicle: saline with Tween-80); 38 % of control (endpoint: median tumor weight change, dose: 500.0 mg/kg/injection, schedule: Q01DX001 (ip), vehicle: saline with Tween-80).

As to `CC(=O)Oc1[nH]c(=O)c2cccc3c2c1CCC3`, the T/C (endpoint: median tumor weight change, dose: 450.0 mg/kg/injection, schedule: Q01DX001 (ip), vehicle: saline with Tween-80) was 155 % of control and the T/C (endpoint: median tumor weight change, dose: 1800.0 mg/kg/injection, schedule: Q01DX001 (ip), vehicle: saline with Tween-80) is 99 % of control.

Turning to `CCCNC1=C(C)C(=O)C2=C(C1=O)[C@H](COC(N)=O)[C@]1(OC)[C@@H]3N[C@@H]3CN21`, the T/C is 7 % of control (endpoint: median tumor weight change, dose: 3.75 mg/kg/injection, schedule: Q01DX001 (ip), vehicle: saline); 13 % of control (endpoint: median tumor weight change, dose: 7.5 mg/kg/injection, schedule: Q01DX001 (ip), vehicle: saline); -66 % of control (endpoint: median tumor weight change, dose: 15.0 mg/kg/injection, schedule: Q01DX001 (ip), vehicle: saline).

Consider `OC1OC2COC(c3ccccc3)OC2C(O)C1O` (configuration not stated), for which the T/C by setting is: (endpoint: median tumor weight change, dose: 50.0 mg/kg/injection, schedule: Q01DX001 (ip), vehicle: water) 105 % of control; (endpoint: median tumor weight change, dose: 100.0 mg/kg/injection, schedule: Q01DX001 (ip), vehicle: water) 80 % of control; (endpoint: median tumor weight change, dose: 200.0 mg/kg/injection, schedule: Q01DX001 (ip), vehicle: water) 101 % of control; (endpoint: median tumor weight change, dose: 400.0 mg/kg/injection, schedule: Q01DX001 (ip), vehicle: water) 59 % of control; (endpoint: median tumor weight change, dose: 800.0 mg/kg/injection, schedule: Q01DX001 (ip), vehicle: water) 62 % of control; (endpoint: median tumor weight change, dose: 1600.0 mg/kg/injection, schedule: Q01DX001 (ip), vehicle: water) 90 % of control.

Take `COc1ccc(C(N)=O)cc1N=NN(C)C`: under “endpoint: median tumor weight (est.), dose: 6.25 mg/kg/injection, schedule: Q07DX005 (ip), vehicle: Klucel (hydroxypropylcellulose) (HPC)”, the T/C is 175 % of control.

Consider `Cc1c(-c2ccc(-c3ccccc3F)cc2)nc2ccc(F)cc2c1C(=O)O`, for which the T/C runs as follows: (endpoint: median tumor weight change, dose: 5.6 mg/kg/injection, schedule: Q01DX005 (ip), vehicle: water) 53 % of control; (endpoint: median tumor weight change, dose: 11.25 mg/kg/injection, schedule: Q01DX005 (ip), vehicle: water) 33 % of control; (endpoint: median tumor weight change, dose: 19.0 mg/kg/injection, schedule: Q01DX005 (ip), vehicle: water) 74 % of control; (endpoint: median tumor weight change, dose: 22.5 mg/kg/injection, schedule: Q01DX005 (ip), vehicle: water) 29 % of control; (endpoint: median tumor weight change, dose: 32.4 mg/kg/injection, schedule: Q01DX005 (ip), vehicle: water) 13 % of control; (endpoint: median tumor weight change, dose: 45.0 mg/kg/injection, schedule: Q01DX001 (ip), vehicle: water) 56 % of control. Further, the T/C is 24 % of control (endpoint: median tumor weight change, dose: 45.0 mg/kg/injection, schedule: Q01DX005 (ip), vehicle: water); 27 % of control (endpoint: median tumor weight change, dose: 54.0 mg/kg/injection, schedule: Q01DX005 (ip), vehicle: water); 82 % of control (endpoint: median tumor weight change, dose: 90.0 mg/kg/injection, schedule: Q01DX001 (ip), vehicle: water); 15 % of control and 20 % of control (endpoint: median tumor weight change, dose: 90.0 mg/kg/injection, schedule: Q01DX005 (ip), vehicle: water).

Take `COc1cc2c[n+](C)c3c4cc5c(cc4ccc3c2cc1OC)OCO5`: the T/C (endpoint: median tumor weight (est.), dose: 10.0 mg/kg/injection, schedule: Q07DX005 (ip), vehicle: saline with Tween-80) was 78 % of control; the T/C (endpoint: median tumor weight (est.), dose: 40.0 mg/kg/injection, schedule: Q07DX005 (ip), vehicle: saline with Tween-80) was 31 % of control; the T/C (endpoint: median tumor weight (est.), dose: 80.0 mg/kg/injection, schedule: Q07DX005 (ip), vehicle: saline with Tween-80) was 4 % of control.

`C[CH2][Ge]1([CH2]C)[CH2]CC2(CCN(CCCN(C)C)C2)C[CH2]1`: the T/C reads like this: (endpoint: mean tumor weight, dose: 25.0 mg/kg/injection, schedule: Q04DX009 (ip), vehicle: saline) 113 % of control; (endpoint: mean tumor weight, dose: 50.0 mg/kg/injection, schedule: Q04DX009 (ip), vehicle: saline) 87 % of control; (endpoint: mean tumor weight, dose: 100.0 mg/kg/injection, schedule: Q04DX009 (ip), vehicle: saline) 40 % of control; (endpoint: median tumor weight (est.), dose: 2.0 mg/kg/injection, schedule: Q07DX005 (ip), vehicle: saline) 67 % of control; (endpoint: median tumor weight (est.), dose: 4.0 mg/kg/injection, schedule: Q07DX005 (ip), vehicle: saline) 57 % of control; (endpoint: median tumor weight (est.), dose: 16.0 mg/kg/injection, schedule: Q07DX005 (ip), vehicle: saline) 74 % of control. Further, the T/C is 55 % of control and 68 % of control (endpoint: median tumor weight (est.), dose: 32.0 mg/kg/injection, schedule: Q07DX005 (ip), vehicle: saline); 67 % of control and 77 % of control (endpoint: median tumor weight (est.), dose: 64.0 mg/kg/injection, schedule: Q07DX005 (ip), vehicle: saline).

As for `Cn1cc(C2NC(=O)c3ccccc3N2)c2ccccc21` (configuration not stated), the T/C (endpoint: median tumor weight change, dose: 25.0 mg/kg/injection, schedule: Q01DX001 (ip), vehicle: Klucel (hydroxypropylcellulose) (HPC)) was 85 % of control; the T/C (endpoint: median tumor weight change, dose: 50.0 mg/kg/injection, schedule: Q01DX001 (ip), vehicle: Klucel (hydroxypropylcellulose) (HPC)) is 85 % of control; the T/C (endpoint: median tumor weight change, dose: 100.0 mg/kg/injection, schedule: Q01DX001 (ip), vehicle: Klucel (hydroxypropylcellulose) (HPC)) is 91 % of control; the T/C (endpoint: median tumor weight change, dose: 200.0 mg/kg/injection, schedule: Q01DX001 (ip), vehicle: Klucel (hydroxypropylcellulose) (HPC)) is 71 % of control; the T/C (endpoint: median tumor weight change, dose: 500.0 mg/kg/injection, schedule: Q01DX001 (ip), vehicle: Klucel (hydroxypropylcellulose) (HPC)) is 68 % of control; the T/C (endpoint: median tumor weight change, dose: 1000.0 mg/kg/injection, schedule: Q01DX001 (ip), vehicle: Klucel (hydroxypropylcellulose) (HPC)) was 33 % of control.
